Measurements taken from US6627651B1, “Cyclic compounds and uses thereof” (Takeda Chemical Industries, Ltd., priority 1999, dated 2003).

How the values were obtained:
human CCR5 = molecular target: T1, human CCR5 (Homo sapiens, UniProt P51681); experiment: CCR5-binding inhibition: [125I]-RANTES binding to CHO/CCR5 cells; details: test compound 1 μM; ligand [125I]-RANTES 100 pM; CHO/CCR5 strains; room temperature, 30 minutes
T1 construct: expressed in transfected cells
Protocol: After CHO-K1 cells, which were grown in a 750-ml, tissue culture flask (Beckton, Dickinson and Company) using Ham F12 medium (Nihon Pharmaceutical Co., Ltd.) containing 10% fetal calf serum (Life Technologies Oriental, Inc.), were removed from the flask with 0.5/L trypsin-0.2 g/L EDTA (Life Technologies Oriental, Inc.), the cells were washed with PBS (Life Technologies Oriental, Inc.), were centrifuged (1000 rpm, 5 minutes) and were suspended in PBS. Next, DNA was introduced into the cells by the use of Gene Pulser (Bio-Rad Laboratories Inc.) under the following conditions. In other words, 8×10^6 cells and 10 μg human CCR5 expression plasmid pCKR5 were added into a cuvette with a 0.4-cm gap, and the cells were electroporated at 0.25 kV under a capacitance of 960 μF. Subsequently, the cells were transferred to Ham F12 medium containing 10% fetal calf serum, and were cultivated for 24 hours. The cells were then removed from the flask again for centrifugation, were then suspended in Ham F12 medium containing 10% fetal serum albumin containing geneticin (Life Technologies Oriental, Inc.) at a final concentration of 500 μg/ml, were diluted to 10^4 cells/ml and were seeded into 96-well plates (Beckton, Dickinson and Company) to obtain geneticin-resistant strains.
Next, after the thus-obtained geneticin-resistant strains were cultivated in a 96-well plate (Beckton, Dickinson and Company), cells expressing CCR5 were selected from the resistant strains. In other words, the binding reaction was carried out at room temperature for 40 minutes in an assay buffer (Ham F12 medium containing 0.5% BSA and 20 mM HEPES (Wako Pure Chemical Industries, Ltd.)) that is supplemented with 200 pM [^125I]-RANTES (Amersham plc) as a ligand, and the cells were washed with ice-cold PBS, were then stirred after adding 50 μl/well of 1M NaOH and were counted for radioactivity in a γ-counter to select CHO/CCR5 strains, the cells to which the ligand was specifically bound.
CHO/CCR5 strains were seeded into 96-well microplates at a density of 5×10^4 cells/well, and were cultivated for 24 hours. After the culture fluid was removed by suction, the assay buffer containing a test compound (1 μM) was added to each well, and a ligand [^125I]-RANTES (Amersham Corporation) was added to a final concentration of 100 pM, after which the reaction was carried out at room temperature for 30 minutes. Next, after the assay buffer was removed by suction, the cells were washed twice with ice-cold PBS. Subsequently, 200 μl of MicroScint-20 (Packard Industry Company, Inc.) was added to each well, which was counted for radioactivity in a Top Count (Packard Industry Company, Inc.).
Percentages of CCR5-binding inhibition by test compounds were determined according to the method described above.

T1 sequence (P51681 whole entry): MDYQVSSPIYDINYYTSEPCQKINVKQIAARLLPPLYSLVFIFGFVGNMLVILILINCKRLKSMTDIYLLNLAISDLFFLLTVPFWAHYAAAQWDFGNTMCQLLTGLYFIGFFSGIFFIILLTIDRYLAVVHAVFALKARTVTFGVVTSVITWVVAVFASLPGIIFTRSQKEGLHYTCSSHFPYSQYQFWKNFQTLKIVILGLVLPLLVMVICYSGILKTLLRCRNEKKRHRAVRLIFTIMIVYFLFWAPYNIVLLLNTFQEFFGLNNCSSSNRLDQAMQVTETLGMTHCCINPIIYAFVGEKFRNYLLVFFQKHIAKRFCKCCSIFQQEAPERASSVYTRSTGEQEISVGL

Inhibition of binding (%) (human CCR5)	inhibition at 1 µM (human CCR5) [%]	melting point	Structure (SMILES)
86	–	–	CCCOc1ccc(CCOc2ccc3c(c2)C=C(C(=O)Nc2ccc(CN(C)C4CCOCC4)cc2)CCS3(=O)=O)cc1 [Compound 19, N-[4-[N-methyl-N-(tetrahydropyran-4-yl)aminomethyl]phenyl]-7-[4-(propoxyphenethyl)oxy]-1,1-dioxo-2,3-dihydro-1-benzothiepine-4-carboxamide]
94	–	–	CCCOc1cccc(COc2ccc3c(c2)C=C(C(=O)Nc2ccc(CN(C)C4CCOCC4)cc2)CCS3(=O)=O)c1 [Compound 20]
–	98	190 to 192 °C	CCCOc1ccccc1COc1ccc2c(c1)C=C(C(=O)Nc1ccc(CN(C)C3CCOCC3)cc1)CCS2(=O)=O [Compound 21, N-[4-[N-methyl-N-(tetrahydropyran-4-yl)aminomethyl]phenyl]-7-[(2-propoxybenzyl)oxy]-1,1-dioxo-2,3-dihydro-1-benzothiepine-4-carboxamide]
89	–	–	CCCOc1ccc(COc2ccc3c(c2)C=C(C(=O)Nc2ccc(CN(C)C4CCOCC4)cc2)CCS3(=O)=O)cc1 [Compound 100]
–	86	175 to 176 °C	CCCOCCOc1ccc(COc2ccc3c(c2)C=C(C(=O)Nc2ccc(CN(C)C4CCOCC4)cc2)CCS3(=O)=O)cc1 [Compound 108, N-[4-[[N-methyl-N-(tetrahydropyran-4-yl)amino]methyl]phenyl]-7-[[4-(2-propoxyethoxy)benzyl]oxy]-1,1-dioxo-2,3-dihydro-1-benzothiepine-4-carboxamide]
–	82	178 to 181 °C	CCCOc1ccc(CCCOc2ccc3c(c2)C=C(C(=O)Nc2ccc(CN(C)C4CCOCC4)cc2)CCS3(=O)=O)cc1 [Compound 121, N-[4-[[N-methyl-N-(tetrahydropyran-4-yl)amino]methyl]phenyl]-7-[3-(4-propoxyphenyl)propoxy]-1,1-dioxo-2,3-dihydro-1-benzothiepine-4-carboxamide]

More lines, now with the values behind:

Structure (SMILES)	Inhibition of binding (%) (human CCR5)	inhibition at 1 µM (human CCR5) [%]	melting point
Cc1ccc(-c2ccc3c(c2)C=C(C(=O)NC2CCN(C4CCOCC4)CC2)CCO3)cc1 [Compound 56, N-(1-(tetrahydropyran-4-yl)piperidin-4-yl)-7-(4-methylphenyl)-2,3-dihydro-1-benzooxepine-4-carboxamide]	–	74	199 to 204 °C (dec.)
Cc1ccc(-c2ccc3c(c2)C=C(C(=O)Nc2ccc(CC4=NCCN4)cc2)CCO3)cc1 [Compound 94]	76	–	–
CCCOc1ccccc1CCCOc1ccc2c(c1)C=C(C(=O)Nc1ccc(CN(C)C3CCOCC3)cc1)CCS2(=O)=O [Compound 119, N-[4-[[N-methyl-N-(tetrahydropyran-4-yl)amino]methyl]phenyl]-7-[3-(2-propoxyphenyl)propoxy]-1,1-dioxo-2,3-dihydro-1-benzothiepine-4-carboxamide]	–	–	184 to 186 °C
CCOc1ccc(COc2ccc3c(c2)C=C(C(=O)Nc2ccc(CN(C)C4CCOCC4)cc2)CCS3(=O)=O)cc1OCC [Compound 122, N-[4-[[N-methyl-N-(tetrahydropyran-4-yl)amino]methyl]phenyl]-7-(3,4-diethoxybenzyloxy)-1,1-dioxo-2,3-dihydro-1-benzothiepine-4-carboxamide]	–	–	186 to 188 °C
CCOCCCc1ccc(Oc2ccc3c(c2)C=C(C(=O)Nc2ccc(CN(C)C4CCOCC4)cc2)CCS3(=O)=O)cc1 [Compound 125, 7-[4-(3-ethoxypropyl)phenoxy]-N-[4-[[N-methyl-N-(tetrahydro-2H-pyran-4-yl)amino]methyl]phenyl]-1,1-dioxo-2,3-dihydro-1-benzothiepine-4-carboxamide]	–	–	156 to 157 °C
CCOCCOc1c(C)cc(Oc2ccc3c(c2)C=C(C(=O)Nc2ccc(CN(C)C4CCOCC4)cc2)CCS3(=O)=O)cc1C [Compound 126, 7-[4-(2-ethoxyethoxy)-3,5-dimethylphenoxy]-N-[4-[[N-methyl-N-(tetrahydro-2H-pyran-4-yl)amino]methyl]phenyl]-1,1-dioxo-2,3-dihydro-1-benzothiepine-4-carboxamide]	–	–	111 to 113 °C
